Values quoted from earlier work as cited in patent publication US20250066349A1 (Prothena Biosciences Limited, priority 2021, published 2025).

Target: DYRK1A (Homo sapiens (Human), UniProt Q13627)
Conditions: cited from earlier work

O=C(O[C@@H]1Cc2c(O)cc(O)cc2O[C@@H]1c1cc(O)c(O)c(O)c1)c1cc(O)c(O)c(O)c1 [EGCG, Epigallocatechin gallate]
mode of DYRK1A inhibition: non-ATP competitive DYRK1A inhibitor
